Measurements reported in patent publication US4822907A, “Method for recovering α-L-aspartyl-L-phenylalanine methyl ester” (Ajinomoto Co., Inc., priority 1986, dated 1989).
Read-outs that look alike come from different tables or passages of the source. Residues, ends and D or L forms follow the SMILES beside them.

Legend:
[1] = Desalting and concentration of neutralized mother liquor on flat reverse osmosis membrane; residual rate (Example 2, Table 2); assay type: physicochemical; settings: pH 5.2, 25°, 40 kg/cm^2 G
Procedure: Next, water was added until the volume became the original volume. Further by repeating similar operation, the system was desalted and concentrated until the volume became half of the original volume.

[2] = Desalting and concentration of raw solution on spiral polyamide reverse osmosis membranes; inhibition rate of each component (Example 1, Table 1); assay type: physicochemical; settings: for Inhibition Rate: 40 kg/cm^2
Procedure: Desalting and concentration were performed, while cyclizing and mixing a non-permeation solution to and with the raw solution.
From the composition of the permeation liquid exhausted in this case, the inhibition rate of each component was calculated according to the following equation. [formula]
Analysis method: liquid chromatography (α-A(M)PM, α-APM, α-AP), (Cl^-).

[3] = Permeability of valuable matters through reverse osmosis membranes (general findings); settings: in words; for permeability of valuable matters: reverse osmosis membrane having NaCl inhibition rate of approximately 30% or more
[4] = cited from earlier work
[5] = not told
[6] = Polyamide Type (A), NaCl inhibition rate 50%
[7] = Polysulfone Type (B), NaCl inhibition rate 25%, comparison
[8] = membrane NaCl inhibition rate 15% (control), immediately after permeation started, pH 4.54, 20° C.
[9] = membrane NaCl inhibition rate 15% (control), when concentrated to 2.5 times, 20° C.
[10] = membrane NaCl inhibition rate 30%, immediately after permeation started, pH 4.54, 20° C.
[11] = membrane NaCl inhibition rate 30%, when concentrated to 2.5 times, 20° C.
[12] = membrane NaCl inhibition rate 60%, immediately after permeation started, pH 4.54, 20° C.
[13] = membrane NaCl inhibition rate 60%, when concentrated to 2.5 times, 20° C.
[14] = membrane NaCl inhibition rate 80%, immediately after permeation started, pH 4.54, 20° C.
[15] = membrane NaCl inhibition rate 80%, when concentrated to 2.5 times, 20° C.

| SMILES | Residual Rate [1, 6] | Residual Rate [1, 7] | Inhibition Rate [2, 8] | Inhibition Rate [2, 9] | Inhibition Rate [2, 10] | Inhibition Rate [2, 11] | Inhibition Rate [2, 12] | Inhibition Rate [2, 13] | Inhibition Rate [2, 14] | Inhibition Rate [2, 15] | permeability for reverse osmosis membranes [3] | permeability of valuable matters [3] | permeability through membrane ([2]; in words, conclusion of Example 1) | stability in aqueous solution ([4]; high temperatures or acidic media) | stability in aqueous solution ([4]; temperatures lower than normal ambient temperatures) | permeability for reverse osmosis membranes [5] | permeability of valuable matters [5] |
| --- | --- | --- | --- | --- | --- | --- | --- | --- | --- | --- | --- | --- | --- | --- | --- | --- | --- |
| Cl.N [NH4 Cl] | 50.4% | 32.5% |  |  |  |  |  |  |  |  |  |  |  |  |  |  |  |
| [Cl-].[Na+] [NaCl, sodium chloride] |  |  | 11.0% | 9.3% | 23.5% | 19.4% | 60.3% | 56.5% | 85.6% | 82.3% |  |  |  |  |  |  |  |
| COC(=O)C[C@H](N)C(=O)N[C@@H](Cc1ccccc1)C(=O)O [α-A(M)P, methyl ester at the L-aspartic acid β-carboxy residue of α-L-aspartyl-L-phenylalanine] (H-Asp(OMe)-Phe-OH) | 97.8% | 60.8% |  |  |  |  |  |  |  |  | low permeability | low |  |  |  |  |  |
| COC(=O)C[C@H](N)C(=O)N[C@@H](Cc1ccccc1)C(=O)OC [α-A(M)PM, methyl ester of the L-aspartic acid β-carboxyl residue of α-L-aspartyl-L-phenylalanine methyl ester] (H-Asp(OMe)-Phe-OMe) | 80.3% | 48.2% | 56.7% | 59.3% | 82.7% | 84.1% | 91.0% | 92.2% | 93.1% | 93.9% | especially high permeability | low | specifically readily permeable |  |  |  |  |
| N[C@@H](CC(=O)O)C(=O)N[C@@H](Cc1ccccc1)C(=O)O [α-AP, α-L-aspartyl-L-phenylalanine] (H-Asp-Phe-OH) | 98.7% | 68.9% | 81.5% | 85.6% | 98.8% | 98.3% | 99.5% | 99.7% | 99.7% | 99.9% | low permeability | low |  |  |  |  |  |
| COC(=O)[C@H](Cc1ccccc1)NC(=O)[C@@H](N)CC(=O)O [α-APM, α-L-aspartyl-L-phenylalanine methyl ester] (H-Asp-Phe-OMe) | 98.0% | 60.8% | 74.1% | 79.2% | 96.2% | 97.7% | 99.1% | 99.3% | 99.0% | 99.6% |  |  |  | readily undergoes various undesirable reactions | relatively stable | low permeability | low |
